Measured values reported in article PMC11198769, “Enhancement of transcription efficiency by TAR-Tat system increases the functional expression of human olfactory receptors” (PLOS ONE, 2024).
Where two headings read alike, the source gives them in different places.

Columns and labels:
[1] = target: T1, OR2W1 (Homo sapiens, UniProt Q9Y3N9); set-up: method as in PMID 19261596; settings: read-out: EC50 value of n-hexanal for OR2W1 reported in a previous study; cited from earlier work
T1 construct: Lucy tag (N); FLAG (N); Rho tag (N); expressed in transfected cells; host or cells: Flp-In T-REx-293 cells stably expressing RTP1S, Gαolf and Ric8-b
T1 sequence (Q9Y3N9 1-320): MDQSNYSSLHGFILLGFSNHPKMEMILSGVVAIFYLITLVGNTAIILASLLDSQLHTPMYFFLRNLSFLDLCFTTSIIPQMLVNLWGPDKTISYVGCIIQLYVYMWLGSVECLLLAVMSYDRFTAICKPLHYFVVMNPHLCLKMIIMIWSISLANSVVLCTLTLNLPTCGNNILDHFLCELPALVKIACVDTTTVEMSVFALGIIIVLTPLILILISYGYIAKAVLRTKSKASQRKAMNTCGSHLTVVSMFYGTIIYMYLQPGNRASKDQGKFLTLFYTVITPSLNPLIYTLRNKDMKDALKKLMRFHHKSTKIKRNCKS

[2] = target: T2, OR5P3 (Homo sapiens, UniProt Q8WZ94); assay: hOR assay (GloSensor cAMP luciferase), dose-response; assay type: cell-based; settings: for EC50: read-out: EC50 of n-hexanal concentration-response relationship
T2 construct: Lucy tag (N); FLAG (N); Rho tag (N); expressed in transfected cells; host or cells: Flp-In T-REx-293 cells stably expressing RTP1S, Gαolf and Ric8-b
T2 sequence (Q8WZ94 1-311): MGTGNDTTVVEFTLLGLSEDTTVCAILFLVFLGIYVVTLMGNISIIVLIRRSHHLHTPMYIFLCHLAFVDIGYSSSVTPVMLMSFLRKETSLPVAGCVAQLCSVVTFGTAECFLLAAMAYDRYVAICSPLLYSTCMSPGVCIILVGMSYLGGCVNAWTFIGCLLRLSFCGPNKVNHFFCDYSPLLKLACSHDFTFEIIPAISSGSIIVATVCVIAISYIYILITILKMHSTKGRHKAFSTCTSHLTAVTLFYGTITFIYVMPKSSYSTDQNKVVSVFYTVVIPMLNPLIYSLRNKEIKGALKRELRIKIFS
Method: (§1) Flp-In T-REx-293 cells stably expressing accessory proteins (RTP1S, Gαolf, and Ric8-b) were established using the Flp-In T-REx system. Accessory proteins-expressing cells were maintained in high-glucose Dulbecco’s modified Eagle medium (Sigma-Aldrich) containing 10% fetal bovine serum (Biowest) and 1% antibiotic–antimycotic (Nacalai tesque) at 37°C with 5% CO2.
(§2) The GloSensor™ Technology (Promega) was used for the luciferase assay of the hOR response. As the negative control, cells that were transfected by the pBApo-CMV neo vector and pHEK293 Ultra Expression Vector I were used as mock cells. hOR/pHEK and hOR/pBApo (50 ng/well) were transfected into the accessory proteins-expressing cell line (40000 cells/well) using Lipofectamine 2000 (Thermo Fisher Scientific) (400 nL/well) along with pGlosensor™-22F cAMP biosensor plasmid (Promega) (50 ng/well) in a 96-well plate. At 28 h posttransfection, the cells were washed with an assay buffer (140 mM NaCl, 10 mM HEPES, 5 mM KCl, 1 mM CaCl2・2H2O, 10 mM D-glucose, pH 7.5) and replaced with the assay buffer (50 μL/well) containing 2% GloSensor cAMP substrate and preincubated for 1 h at 25°C. Then, the assay buffer was added (130 μL/well). After 10 min of equilibration, the luminescence was measured (L0). Odorants diluted in 10% DMSO/assay buffer were treated (20 μL/well). After 9 min, the luminescence was measured (L9min). First, all the L9min values were subtracted by the L0 value (ΔL) and divided by the L0 value (ΔL/L0). The concentration range of the odorants was different for each odorant, but the minimum was 0.01 μM and the maximum was 3 mM. For all hORs, luciferase assays with hOR/pBApo and hOR/pHEK were conducted in the same 96-well plate each time, and luminescence was normalized to a maximum value of 100. Dose–response curve images were graphed using the Graph Pad Prism 9 software (Graph Pad Software).

[3] = target: T3, OR2Z1 (Homo sapiens, UniProt Q8NG97); assay: as above; assay type: cell-based; settings: OR2Z1, with or without the TAR-Tat system
T3 construct: Lucy tag (N); FLAG (N); Rho tag (N); expressed in transfected cells; host or cells: Flp-In T-REx-293 cells stably expressing RTP1S, Gαolf and Ric8-b
T3 sequence (Q8NG97 1-314): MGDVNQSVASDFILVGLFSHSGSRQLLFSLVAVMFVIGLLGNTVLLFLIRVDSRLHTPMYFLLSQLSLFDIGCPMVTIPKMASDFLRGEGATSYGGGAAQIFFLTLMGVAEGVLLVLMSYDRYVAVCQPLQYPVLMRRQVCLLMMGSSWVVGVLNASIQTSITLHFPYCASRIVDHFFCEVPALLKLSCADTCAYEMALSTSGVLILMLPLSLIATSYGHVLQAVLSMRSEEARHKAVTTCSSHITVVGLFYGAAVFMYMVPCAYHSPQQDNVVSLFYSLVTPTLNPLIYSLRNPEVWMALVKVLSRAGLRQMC
Method: as §1, §2

[4] = target: T4, OR4K5 (Homo sapiens, UniProt Q8NGD3); assay: as above; assay type: cell-based; settings: OR4K5, with or without the TAR-Tat system
T4 construct: Lucy tag (N); FLAG (N); Rho tag (N); expressed in transfected cells; host or cells: Flp-In T-REx-293 cells stably expressing RTP1S, Gαolf and Ric8-b
T4 sequence (Q8NGD3 1-323): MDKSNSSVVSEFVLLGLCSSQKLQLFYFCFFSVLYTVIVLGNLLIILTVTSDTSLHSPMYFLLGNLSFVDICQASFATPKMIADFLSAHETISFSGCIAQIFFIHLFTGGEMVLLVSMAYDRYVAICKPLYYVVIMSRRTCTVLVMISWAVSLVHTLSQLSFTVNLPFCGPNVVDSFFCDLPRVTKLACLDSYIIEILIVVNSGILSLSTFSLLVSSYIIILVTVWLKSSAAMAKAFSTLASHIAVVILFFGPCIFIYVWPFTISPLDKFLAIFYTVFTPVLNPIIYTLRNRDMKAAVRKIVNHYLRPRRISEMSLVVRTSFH
Method: as §1, §2

[5] = target: T5, OR56B1 (Homo sapiens, UniProt Q8NGI3); assay: as above; assay type: cell-based; settings: OR56B1, with or without the TAR-Tat system
T5 construct: Lucy tag (N); expressed in transfected cells; host or cells: Flp-In T-REx-293 cells stably expressing RTP1S, Gαolf and Ric8-b
T5 sequence (Q8NGI3 1-324): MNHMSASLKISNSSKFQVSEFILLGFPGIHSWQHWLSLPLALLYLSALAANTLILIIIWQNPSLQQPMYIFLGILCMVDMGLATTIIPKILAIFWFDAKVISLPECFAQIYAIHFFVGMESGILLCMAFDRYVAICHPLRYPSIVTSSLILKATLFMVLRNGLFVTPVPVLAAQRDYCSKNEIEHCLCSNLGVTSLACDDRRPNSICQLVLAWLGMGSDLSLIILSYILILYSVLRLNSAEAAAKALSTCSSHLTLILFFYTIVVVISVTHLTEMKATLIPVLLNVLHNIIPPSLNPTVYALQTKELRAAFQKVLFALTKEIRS
Method: as §1, §2

## CCCCCC=O [n-hexanal]
[1]
  EC50: 7.9 µM
[2]; OR5P3, with and without the TAR-Tat system
  concentration-dependent response to n-hexanal: Concentration-dependent responses were observed
[2]; OR5P3/pBApo (without TAR-Tat system)
  EC50: 191 µM
[2]; OR5P3/pHEK (with TAR-Tat system)
  EC50: 672 µM
[2]; OR5P3/pHEK versus OR5P3/pBApo
  increase of maximum value of dose-response curve with the TAR-Tat system: 4.1 fold
[3]
  concentration-dependent response to n-hexanal: no concentration-dependent response
[4]
  concentration-dependent response to n-hexanal: no concentration-dependent response
[5]
  concentration-dependent response to n-hexanal: no concentration-dependent response
